Experimental data published in ChEMBL document CHEMBL4014348, “Design, Multicomponent Synthesis, and Anticancer Activity of a Focused Histone Deacetylase (HDAC) Inhibitor Library with Peptoid-Based Cap Groups” (J Med Chem, 2017).
Where “and” joins values, the source holds several entries; their conditions need not be identical. Equal values may be shown once. Calls of active or inactive are those of the source. No cut-off for these calls is given here.

Experiments:
[1] = target: T1, Histone deacetylase 1/2/3/6 (Homo sapiens, UniProt Q13547+O15379+Q9UBN7+Q92769); experiment: Inhibition of HDAC1/2/3/6 in human Cal27CisR cells using Boc-Lys(epsilon-Ac)-AMC as substrate preincubated for 18 hrs followed by substrate addition measured after 3 hrs by fluorescence assay; type: cell-based
T1 sequence (O15379 whole entry, looked up, one chain of several): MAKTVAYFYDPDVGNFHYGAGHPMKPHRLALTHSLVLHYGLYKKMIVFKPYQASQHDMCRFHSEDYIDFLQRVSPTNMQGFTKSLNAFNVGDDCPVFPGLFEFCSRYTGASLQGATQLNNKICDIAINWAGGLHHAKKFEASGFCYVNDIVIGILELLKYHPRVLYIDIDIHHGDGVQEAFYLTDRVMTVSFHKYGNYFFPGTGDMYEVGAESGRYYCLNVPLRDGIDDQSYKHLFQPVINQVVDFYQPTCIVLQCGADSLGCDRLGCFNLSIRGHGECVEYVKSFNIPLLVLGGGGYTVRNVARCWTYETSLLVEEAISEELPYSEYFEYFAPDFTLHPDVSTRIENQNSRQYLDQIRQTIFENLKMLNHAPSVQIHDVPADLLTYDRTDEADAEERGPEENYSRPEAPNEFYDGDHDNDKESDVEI
T1 sequence (Q13547 whole entry, looked up, one chain of several): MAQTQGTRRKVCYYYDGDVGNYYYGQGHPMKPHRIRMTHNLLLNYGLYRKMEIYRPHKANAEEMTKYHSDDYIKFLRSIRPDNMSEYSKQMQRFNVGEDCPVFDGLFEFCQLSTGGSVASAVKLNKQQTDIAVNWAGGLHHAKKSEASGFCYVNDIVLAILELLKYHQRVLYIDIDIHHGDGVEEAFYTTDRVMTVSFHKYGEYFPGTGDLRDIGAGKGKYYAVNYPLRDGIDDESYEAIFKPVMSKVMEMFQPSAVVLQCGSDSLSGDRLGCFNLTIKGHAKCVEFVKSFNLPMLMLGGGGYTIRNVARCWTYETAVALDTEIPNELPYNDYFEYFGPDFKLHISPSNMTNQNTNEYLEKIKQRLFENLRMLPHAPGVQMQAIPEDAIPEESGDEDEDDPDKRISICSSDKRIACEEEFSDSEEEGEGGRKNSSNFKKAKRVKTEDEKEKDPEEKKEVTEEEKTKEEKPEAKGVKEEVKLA
T1 sequence (Q92769 whole entry, looked up, one chain of several): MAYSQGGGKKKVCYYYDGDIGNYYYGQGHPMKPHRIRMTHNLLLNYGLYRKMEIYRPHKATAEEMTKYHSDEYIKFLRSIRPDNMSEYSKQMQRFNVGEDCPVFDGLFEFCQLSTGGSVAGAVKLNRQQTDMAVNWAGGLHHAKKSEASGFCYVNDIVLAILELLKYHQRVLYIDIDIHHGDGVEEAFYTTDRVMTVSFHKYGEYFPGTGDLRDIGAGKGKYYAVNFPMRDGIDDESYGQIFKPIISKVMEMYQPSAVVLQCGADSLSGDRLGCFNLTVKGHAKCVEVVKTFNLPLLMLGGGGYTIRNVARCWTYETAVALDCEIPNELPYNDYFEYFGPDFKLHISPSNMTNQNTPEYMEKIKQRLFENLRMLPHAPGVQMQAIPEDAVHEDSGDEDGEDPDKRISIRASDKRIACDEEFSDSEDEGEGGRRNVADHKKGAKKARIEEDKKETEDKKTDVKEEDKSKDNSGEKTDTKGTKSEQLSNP

[2] = target: T1, Histone deacetylase 1/2/3/6; experiment: Inhibition of HDAC1/2/3/6 in human A2780 cells using Boc-Lys(epsilon-Ac)-AMC as substrate preincubated for 18 hrs followed by substrate addition measured after 3 hrs by fluorescence assay; type: cell-based
CAL-27 [3] = experiment: Cytotoxicity against human CAL27 cells assessed as cell survival after 72 hrs by MTT assay; type: functional, cell-based; conditions: CAL-27, 72 h
Histone deacetylase 8 = target: T2, Histone deacetylase 8 (Homo sapiens, UniProt Q9BY41); experiment: Inhibition of human recombinant HDAC8 expressed in Escherichia coli using Z-L-Lys(epsilon-trifluoroacetyl)-AMC as substrate measured after 90 mins by fluorescence assay
T2 sequence (Q9BY41 whole entry): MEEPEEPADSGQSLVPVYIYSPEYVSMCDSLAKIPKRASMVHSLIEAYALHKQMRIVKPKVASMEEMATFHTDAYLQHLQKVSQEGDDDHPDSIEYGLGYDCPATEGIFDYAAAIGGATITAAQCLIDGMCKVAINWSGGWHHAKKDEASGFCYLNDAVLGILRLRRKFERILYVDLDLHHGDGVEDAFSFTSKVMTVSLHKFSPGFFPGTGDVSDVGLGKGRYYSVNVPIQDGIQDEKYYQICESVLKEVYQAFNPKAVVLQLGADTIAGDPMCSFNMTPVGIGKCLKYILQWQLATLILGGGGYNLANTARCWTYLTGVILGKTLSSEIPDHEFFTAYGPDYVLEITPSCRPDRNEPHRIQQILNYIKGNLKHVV

[4] = Apparent permeability in human Caco2 cells; type: ADME, cell-based, Caco-2; conditions: caco-2
[5] = target: T1, Histone deacetylase 1/2/3/6; experiment: Inhibition of HDAC1/2/3/6 in human Cal27 cells assessed as potentiation of cisplatin-induced apoptosis at 250 to 500 nM preincubated for 48 hrs followed by cisplatin addition by flow cytomertry assay; type: cell-based
CAL-27 [6] = experiment: Induction of apoptosis in human CAL27 cells at 250 to 500 nM incubated for 48 hrs by flow cytometry assay; type: cell-based; conditions: cal-27, 48 h, 0.5 µM
[7] = target: T1, Histone deacetylase 1/2/3/6; experiment: Inhibition of HDAC1/2/3/6 in human A2780cisR cells using Boc-Lys(epsilon-Ac)-AMC as substrate preincubated for 18 hrs followed by substrate addition measured after 3 hrs by fluorescence assay; type: cell-based
[8] = target: T1, Histone deacetylase 1/2/3/6; experiment: Inhibition of HDAC1/2/3/6 in human Cal27CisR cells assessed as potentiation of cisplatin-induced cytotoxicity preincubated for 48 hrs followed by cisplatin addition measured after 72 hrs by MTT assay relative to control; type: cell-based
[9] = target: T1, Histone deacetylase 1/2/3/6; experiment: Inhibition of HDAC1/2/3/6 in human Cal27 cells using Boc-Lys(epsilon-Ac)-AMC as substrate preincubated for 18 hrs followed by substrate addition measured after 3 hrs by fluorescence assay; type: cell-based
[10] = target: T1, Histone deacetylase 1/2/3/6; experiment: Inhibition of HDAC1/2/3/6 in human Cal27CisR cells assessed as potentiation of cisplatin-induced apoptosis at 250 to 500 nM preincubated for 48 hrs followed by cisplatin addition by flow cytomertry assay; type: cell-based
[11] = target: T3, Protein deacetylase HDAC6 (Homo sapiens, UniProt Q9UBN7); experiment: Inhibition of N-terminal GST-tagged recombinant human HDAC6 expressed in baculovirus infected Sf9 insect cells using Z-(Ac)Lys-AMC as substrate measured after 90 mins by fluorescence assay
T3 sequence (Q9UBN7 whole entry): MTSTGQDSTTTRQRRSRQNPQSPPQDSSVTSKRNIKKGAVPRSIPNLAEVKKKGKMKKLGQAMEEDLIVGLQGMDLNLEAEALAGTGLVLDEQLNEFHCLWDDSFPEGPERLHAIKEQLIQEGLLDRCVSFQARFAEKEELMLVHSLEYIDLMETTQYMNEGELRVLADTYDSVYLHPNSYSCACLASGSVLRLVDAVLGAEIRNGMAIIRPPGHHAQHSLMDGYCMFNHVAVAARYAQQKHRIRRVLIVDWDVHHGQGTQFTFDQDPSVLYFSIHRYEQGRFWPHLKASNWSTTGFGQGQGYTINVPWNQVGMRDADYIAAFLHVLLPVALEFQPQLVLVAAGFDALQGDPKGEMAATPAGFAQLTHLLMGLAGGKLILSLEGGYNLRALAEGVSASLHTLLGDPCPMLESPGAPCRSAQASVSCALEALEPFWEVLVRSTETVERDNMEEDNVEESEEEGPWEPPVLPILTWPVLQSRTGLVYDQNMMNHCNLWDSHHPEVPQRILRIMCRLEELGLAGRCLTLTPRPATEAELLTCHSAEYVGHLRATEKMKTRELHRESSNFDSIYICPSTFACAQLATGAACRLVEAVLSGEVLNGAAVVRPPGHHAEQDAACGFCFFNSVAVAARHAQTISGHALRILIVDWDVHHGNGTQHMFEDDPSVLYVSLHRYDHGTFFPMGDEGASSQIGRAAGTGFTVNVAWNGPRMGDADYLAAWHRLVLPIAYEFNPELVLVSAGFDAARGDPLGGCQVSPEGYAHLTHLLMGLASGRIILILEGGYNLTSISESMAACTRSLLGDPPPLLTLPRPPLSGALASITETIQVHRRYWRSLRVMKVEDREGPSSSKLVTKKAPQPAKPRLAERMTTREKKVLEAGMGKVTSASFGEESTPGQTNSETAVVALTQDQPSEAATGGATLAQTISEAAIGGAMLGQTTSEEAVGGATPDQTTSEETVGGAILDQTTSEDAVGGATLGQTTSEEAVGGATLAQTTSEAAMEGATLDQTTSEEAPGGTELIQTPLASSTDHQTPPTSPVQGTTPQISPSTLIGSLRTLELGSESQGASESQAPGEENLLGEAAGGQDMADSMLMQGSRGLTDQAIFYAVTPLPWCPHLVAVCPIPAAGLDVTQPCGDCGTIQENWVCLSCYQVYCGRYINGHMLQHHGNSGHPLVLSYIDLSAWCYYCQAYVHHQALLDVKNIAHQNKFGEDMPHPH

[12] = Cytotoxicity against human Cal27CisR cells assessed as cell survival after 72 hrs by MTT assay; type: functional, cell-based
[13] = target: T1, Histone deacetylase 1/2/3/6; experiment: Inhibition of HDAC1/2/3/6 in human CAL27 cells assessed as potentiation of cisplatin-induced cytotoxicity preincubated for 48 hrs followed by cisplatin addition measured after 72 hrs by MTT assay relative to control; type: cell-based
[14] = target: T4, Protein deacetylase HDAC6 (Homo sapiens) (UniProt Q9UBN7); experiment: Inhibition of HDAC6 in human Cal27 cells assessed as increase in acetylation of alpha-tubulin at 10 uM after 24 hrs by Western blot method; type: cell-based
T4 sequence (whole entry): T3 sequence (Q9UBN7 whole entry)

A2780 = experiment: Cytotoxicity against human A2780 cells assessed as cell survival after 72 hrs by MTT assay; type: functional, cell-based; conditions: A2780, 72 h
[15] = Apparent permeability in MDCK cells; type: ADME, cell-based, Canis lupus familiaris; conditions: dog
Histone deacetylase 2 = Histone deacetylase 2 (Homo sapiens, UniProt Q92769); experiment: Inhibition of full length human recombinant C-terminal FLAG-tagged HDAC2 expressed in baculovirus infected Sf9 insect cells using Boc-Lys(epsilon-Ac)-AMC as substrate measured after 90 mins by fluorescence assay; type: cell-based
Chain of Histone deacetylase 2 (Q92769 whole entry): as the sequence (Q92769 whole entry, looked up, one chain of several) above

[16] = target: Histone deacetylase 3/Nuclear receptor corepressor 2 (HDAC3/NCoR2) (Homo sapiens, UniProt O15379); experiment: Inhibition of full length human recombinant C-terminal His-tagged HDAC3/NcoR2 expressed in baculovirus infected Sf9 insect cells using Boc-Lys(epsilon-Ac)-AMC as substrate measured after 90 mins by fluorescence assay
Chain of Histone deacetylase 3/Nuclear receptor corepressor 2 (HDAC3/NCoR2) (O15379 whole entry): as the sequence (O15379 whole entry, looked up, one chain of several) above
Chain of Histone deacetylase 3/Nuclear receptor corepressor 2 (HDAC3/NCoR2) (Q9Y618 whole entry, further chain): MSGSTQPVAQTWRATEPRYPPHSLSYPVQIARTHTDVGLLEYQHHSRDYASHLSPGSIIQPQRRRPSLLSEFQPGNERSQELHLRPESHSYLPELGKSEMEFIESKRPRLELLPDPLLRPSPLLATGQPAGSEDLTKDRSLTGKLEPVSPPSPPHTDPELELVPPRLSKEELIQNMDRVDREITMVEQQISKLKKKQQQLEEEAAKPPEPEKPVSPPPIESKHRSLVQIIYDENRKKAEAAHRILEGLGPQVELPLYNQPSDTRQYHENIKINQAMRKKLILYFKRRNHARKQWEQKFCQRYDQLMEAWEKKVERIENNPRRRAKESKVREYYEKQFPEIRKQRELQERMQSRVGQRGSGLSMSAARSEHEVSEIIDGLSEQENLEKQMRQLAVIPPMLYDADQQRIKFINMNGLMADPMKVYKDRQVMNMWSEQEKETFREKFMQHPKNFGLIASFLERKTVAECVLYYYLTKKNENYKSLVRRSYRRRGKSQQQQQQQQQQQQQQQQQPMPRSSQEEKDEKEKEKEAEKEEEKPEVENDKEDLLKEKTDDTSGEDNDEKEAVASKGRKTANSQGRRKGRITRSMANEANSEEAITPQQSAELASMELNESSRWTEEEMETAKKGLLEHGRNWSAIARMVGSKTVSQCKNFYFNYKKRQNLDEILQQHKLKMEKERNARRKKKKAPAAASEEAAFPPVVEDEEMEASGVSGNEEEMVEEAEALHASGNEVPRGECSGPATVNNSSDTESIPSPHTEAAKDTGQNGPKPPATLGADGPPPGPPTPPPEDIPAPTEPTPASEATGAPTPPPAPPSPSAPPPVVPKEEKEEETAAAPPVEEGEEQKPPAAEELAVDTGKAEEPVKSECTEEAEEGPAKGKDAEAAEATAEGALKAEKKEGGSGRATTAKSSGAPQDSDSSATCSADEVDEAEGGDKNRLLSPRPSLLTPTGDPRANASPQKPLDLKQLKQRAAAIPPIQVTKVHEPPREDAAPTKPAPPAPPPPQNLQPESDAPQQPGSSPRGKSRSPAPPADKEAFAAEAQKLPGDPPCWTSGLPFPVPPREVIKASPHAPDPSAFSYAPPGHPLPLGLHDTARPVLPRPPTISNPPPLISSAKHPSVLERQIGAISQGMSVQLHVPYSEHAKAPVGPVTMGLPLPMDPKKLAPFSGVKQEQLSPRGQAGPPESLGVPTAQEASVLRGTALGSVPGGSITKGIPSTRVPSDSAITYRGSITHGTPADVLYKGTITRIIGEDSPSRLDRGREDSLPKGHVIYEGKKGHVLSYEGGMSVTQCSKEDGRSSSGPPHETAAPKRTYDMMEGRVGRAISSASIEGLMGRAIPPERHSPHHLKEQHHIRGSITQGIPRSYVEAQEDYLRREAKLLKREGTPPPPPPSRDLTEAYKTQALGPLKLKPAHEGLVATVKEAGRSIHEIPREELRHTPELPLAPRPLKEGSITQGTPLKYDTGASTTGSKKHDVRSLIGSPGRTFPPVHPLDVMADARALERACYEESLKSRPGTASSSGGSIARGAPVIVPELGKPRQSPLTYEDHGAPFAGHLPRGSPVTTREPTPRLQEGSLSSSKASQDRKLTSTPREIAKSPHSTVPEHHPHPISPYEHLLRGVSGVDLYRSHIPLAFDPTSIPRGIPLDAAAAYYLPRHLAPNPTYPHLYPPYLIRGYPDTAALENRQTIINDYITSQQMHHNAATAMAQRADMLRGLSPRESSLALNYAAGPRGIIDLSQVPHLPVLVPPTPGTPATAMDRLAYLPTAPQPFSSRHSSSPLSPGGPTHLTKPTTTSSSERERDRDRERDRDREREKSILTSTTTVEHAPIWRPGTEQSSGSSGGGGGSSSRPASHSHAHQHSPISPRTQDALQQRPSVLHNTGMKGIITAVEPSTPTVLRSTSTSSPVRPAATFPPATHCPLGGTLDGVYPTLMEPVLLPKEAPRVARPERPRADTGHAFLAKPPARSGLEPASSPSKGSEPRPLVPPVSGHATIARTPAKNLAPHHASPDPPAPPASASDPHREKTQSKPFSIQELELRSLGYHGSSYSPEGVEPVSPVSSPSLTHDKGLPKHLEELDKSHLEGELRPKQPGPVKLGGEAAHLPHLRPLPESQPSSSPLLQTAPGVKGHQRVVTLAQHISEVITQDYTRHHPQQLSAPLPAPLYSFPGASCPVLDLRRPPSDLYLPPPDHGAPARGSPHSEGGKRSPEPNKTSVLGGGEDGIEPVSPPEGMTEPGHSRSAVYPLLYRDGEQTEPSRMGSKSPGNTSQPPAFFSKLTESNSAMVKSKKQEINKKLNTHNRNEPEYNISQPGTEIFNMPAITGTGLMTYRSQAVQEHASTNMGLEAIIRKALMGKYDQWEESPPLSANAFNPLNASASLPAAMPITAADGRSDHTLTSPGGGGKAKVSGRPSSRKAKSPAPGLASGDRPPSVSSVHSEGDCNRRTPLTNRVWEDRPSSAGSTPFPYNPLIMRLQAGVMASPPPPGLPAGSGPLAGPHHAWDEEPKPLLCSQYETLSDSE

[17] = target: T5, Histone deacetylase 1/2/3 (Homo sapiens) (UniProt Q13547+O15379+Q92769); experiment: Inhibition of HDAC1/2/3 in human Cal27 cells assessed as increase in acetylation of histone H3 at 10 uM after 24 hrs by Western blot method; type: cell-based
[18] = target: T4, Protein deacetylase HDAC6 (Homo sapiens); experiment: Inhibition of HDAC6 in human Cal27CisR cells assessed as increase in acetylation of alpha-tubulin at 10 uM after 24 hrs by Western blot method; type: cell-based
[19] = target: T5, Histone deacetylase 1/2/3 (Homo sapiens); experiment: Inhibition of HDAC1/2/3 in human Cal27CisR cells assessed as increase in acetylation of histone H3 at 10 uM after 24 hrs by Western blot method; type: cell-based
A2780cisR = experiment: Cytotoxicity against human A2780cisR cells assessed as cell survival after 72 hrs by MTT assay; type: functional, cell-based
Histone deacetylase 1 = Histone deacetylase 1 (Homo sapiens, UniProt Q13547); experiment: Inhibition of C-terminal FLAG/His-tagged recombinant human HDAC1 expressed in baculovirus infected Sf9 insect cells using Z-(Ac)Lys-AMC as substrate measured after 90 mins by fluorescence assay
Chain of Histone deacetylase 1 (Q13547 whole entry): as the sequence (Q13547 whole entry, looked up, one chain of several) above

[20] = Induction of apoptosis in human Cal27CisR cells at 250 to 500 nM incubated for 48 hrs by flow cytometry assay; type: cell-based; conditions: 0.5 µM

SMILES: CN(C)c1ccc(C(=O)N(CCCCCC(=O)NO)CC(=O)NCc2ccccc2)cc1
- IC50 [1]: 0.35 µM
- IC50 [2]: 0.48 µM
- IC50 (CAL-27 [3]): 0.44 µM
- IC50 (Histone deacetylase 8): 2.75 µM
- Papp [4]: 8.2 ×10⁻⁶ cm/s and 20 ×10⁻⁶ cm/s
- inhibition [5]: Active
- Activity (CAL-27 [6]): Non-Toxic
- IC50 [7]: 0.32 µM
- inhibition [8]: Dose-dependent effect
- IC50 [9]: 0.27 µM
- inhibition [10]: Active
- IC50 [11]: 0.281 µM
- IC50 [12]: 1.13 µM
- inhibition [13]: Dose-dependent effect
- inhibition [14]: Active
- IC50 (A2780): 0.47 µM
- Papp ([15]; MDCK, read-out: Papp): 7.3 ×10⁻⁶ cm/s
- Papp ([15]; mdck): 10.6 ×10⁻⁶ cm/s
- IC50 (Histone deacetylase 2): 0.066 µM
- IC50 [16]: 0.0065 µM
- inhibition [17]: Active
- inhibition [18]: Active
- inhibition [19]: Active
- IC50 (A2780cisR): 1.62 µM
- IC50 (Histone deacetylase 1): 0.025 µM
- Activity [20]: Non-Toxic
